Values of other authors, collected in patent publication US6759057B1, “Methods and compositions using liposome-encapsulated non-steroidal anti-inflammatory drugs” (The Liposome Company, Inc., priority 1986, dated 2004).

Test system: rat stomach mucosa
Conditions: rats dosed with Prostaglandin E2

Structure (SMILES): CCCCC[C@H](O)/C=C/[C@H]1[C@H](O)CC(=O)[C@@H]1C/C=C\CCCC(=O)O [Prostaglandin E2]
- increase in the major gastric surface protective surfactant: 2-6 fold
